Read-outs that look alike come from different tables or passages of the source.
Key:
[1] = tested on: murine cancer model; conditions: cited from earlier work
[2] = tested on: ZIKV-R2A (strain FSS13025); assay: microbe, parasite or virus in culture; type: cell-based; conditions: Zika virus, Huh7.5, 48 h; for activity at 50 µM: read-out: ZIKV-R2A replication (fold DMSO) Mean
[3] = tested on: HCV, strain JFH-1; type: cell-based, hepatitis C virus; conditions: 50 μM, JFH-1-Luc, Huh7.5, 2 days
[4] = tested on: Huh7.5 cells; assay: Cell viability, CellTiter-Glo luminescent assay; conditions: for Cell viability (fold DMSO) Mean: deconvolution screen, singletons, 50 µM, uninfected Huh7.5
[5] = target: ZIKV NS3/NS4B interaction (Zika virus, UniProt A0A024B7W1); assay: Coimmunoprecipitation assay of NS3/NS4B interaction; conditions: unpublished data
ZIKV NS3/NS4B interaction, sequence (A0A024B7W1 1503-2119): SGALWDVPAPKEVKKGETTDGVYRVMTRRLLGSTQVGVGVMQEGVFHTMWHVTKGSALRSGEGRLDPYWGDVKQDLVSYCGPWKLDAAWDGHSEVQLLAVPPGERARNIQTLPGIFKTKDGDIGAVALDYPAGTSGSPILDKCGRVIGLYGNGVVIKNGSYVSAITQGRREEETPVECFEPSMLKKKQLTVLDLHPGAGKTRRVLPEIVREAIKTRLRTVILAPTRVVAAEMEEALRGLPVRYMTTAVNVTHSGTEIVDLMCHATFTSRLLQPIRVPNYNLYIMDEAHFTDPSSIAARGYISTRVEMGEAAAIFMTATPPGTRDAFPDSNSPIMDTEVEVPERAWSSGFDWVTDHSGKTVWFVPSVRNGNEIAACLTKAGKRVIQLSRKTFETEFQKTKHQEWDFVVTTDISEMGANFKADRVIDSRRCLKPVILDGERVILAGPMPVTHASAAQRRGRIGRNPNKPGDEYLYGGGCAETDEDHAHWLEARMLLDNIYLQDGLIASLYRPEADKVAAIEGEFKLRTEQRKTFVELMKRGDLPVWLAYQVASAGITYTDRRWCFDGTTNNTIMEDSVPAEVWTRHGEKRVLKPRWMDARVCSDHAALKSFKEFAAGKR
ZIKV NS3/NS4B interaction, sequence (A0A024B7W1 2270-2520): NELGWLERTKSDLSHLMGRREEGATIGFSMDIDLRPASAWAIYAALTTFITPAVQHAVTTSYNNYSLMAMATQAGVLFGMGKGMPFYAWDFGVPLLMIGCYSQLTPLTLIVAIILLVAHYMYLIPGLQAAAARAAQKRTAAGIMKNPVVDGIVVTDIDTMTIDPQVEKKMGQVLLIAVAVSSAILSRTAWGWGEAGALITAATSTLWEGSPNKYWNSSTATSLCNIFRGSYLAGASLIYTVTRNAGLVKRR

[6] = tested on: DENV-R2A (Rluc-expressing DENV, serotype 2 strain 16681); assay: microbe, parasite or virus in culture; type: cell-based, Dengue virus
[7] = tested on: SARS-CoV-2; type: cell-based
[8] = tested on: DENV-R2A; type: cell-based, Dengue virus; conditions: 50 μM
[9] = tested on: ZIKV H/PF/2013; assay: Infectious viral titer by plaque assay, ZIKV in Huh7.5 cells; type: cell-based, Zika virus; conditions: 50 μM, MOI 0.1, Huh7.5, 2 days postinfection
[10] = tested on: WNV NY99; assay: Extracellular infectious titer by plaque assay, WNV in Huh7.5 cells; type: cell-based, West Nile virus; conditions: 50 μM, MOI 0.1, Huh7.5, 2 days postinfection
[11] = tested on: DENV2 16681s; assay: Intracellular DENV vRNA (RT-qPCR) and NS4B (western blot) in infected Huh7.5 cells; type: cell-based, Dengue virus; conditions: 50 μM, MOI 0.1, Huh7.5, 2 days postinfection
[12] = tested on: DENV2 16681s; assay: Infectious viral titer by plaque assay, wild-type DENV2 in Huh7.5 cells; type: cell-based, Dengue virus; conditions: 50 μM, MOI 0.1, Huh7.5, 2 days postinfection
[13] = tested on: MHV-A59; assay: Infectious viral titer by plaque assay, MHV-A59 in DBT cells; type: cell-based, mouse hepatitis virus; conditions: 50 μM, MOI 0.0001, 1 day postinfection
[14] = tested on: DENV vesicle packets (VP); assay: Replication-independent vesicle packet induction (pIRO-D) in Huh7/Lunet-T7 cells, TEM, western blot, immunofluorescence; conditions: 50 μM for 12 h, pIRO-D-transfected Huh7/Lunet-T7
[15] = tested on: ZIKV-R2A (strain FSS13025); conditions: same experimental set-up; cited from earlier work
[16] = tested on: Huh7.5 cells; parameters: method as in PMID 34152811; conditions: same experimental set-up; cited from earlier work
[17] = tested on: DENV-R2A (Rluc-expressing DENV, serotype 2 strain 16681); conditions: same experimental set-up; cited from earlier work
[18] = Dengue virus, Huh7.5, 48 h, read-out: DENV-R2A replication (fold DMSO) Mean, deconvolution screen, singletons, 50 µM, Huh7.5, 2 days postinfection

NC(=O)c1ccccc1NC(=O)c1ccc(-c2ccccc2)cc1 [N-(2-[aminocarbonyl]phenyl) (1,1′-biphenyl)-4-carboxamide]
efficacy in in vivo murine cancer model [1]: effective
toxicity in in vivo murine cancer model [1]: without observable toxicity

O=C(Nc1ccccc1)c1cccnc1 [NPP3C, N-phenylpyridine-3-carboxamide]
EC50 ([2]; read-out: EC50 ZIKV-R2A FSS13025): 15.3 µM
activity at 50 µM [2]: 27%
impact on HCV replication [3]: did inhibit
cell viability / cytotoxicity at the used concentration ([4]; 50 μM, Huh7.5): unaffected
formation and stability of ZIKV NS3/NS4B interaction [5]: do not inhibit
decrease of viral replication (DENV-R2A) ([6]; 50 μM, Huh7.5, 2 days postinfection, vs DMSO): 55 fold
activity at 50 µM ([6]; Dengue virus, Huh7.5, 48 h, read-out: DENV-R2A replication (Fold DMSO), Table S3, NPP3C analogues, 50 µM, Huh7.5, 2 days postinfection): 1.31%
activity at 50 µM [6, 18]: 2.38%
activity at 50 µM ([6]; Dengue virus, Huh7.5, 48 h, read-out: DENV-R2A replication (fold DMSO), Table 1, NPP3C analogues, 50 μM, Huh7.5, 2 days postinfection): 1%
EC50 ([6]; Dengue virus, Huh7.5, 48 h, read-out: EC50 DENV-R2A): 7.1 µM
anti-SARS-CoV-2 activity (reduction) [7]: less than 10 fold
inhibitory activity when added after infection ([8]; added 4 h after infection): retain their full inhibitory activity
inhibitory activity when added after infection ([8]; added up to 8 h after infection, read 2 days postinfection): retained a strong inhibitory activity
reduction in ZIKV viral titers [9]: ~15 fold
decrease of WNV extracellular infectious titers [10]: 22 fold
intracellular levels of DENV vRNA and NS4B [11]: decrease
abundance of released virions (plaque assay) [12]: reduced
impact on MHV replication [13]: did not impede
levels of viral protein NS3 (western blot) [14]: remained unchanged

COc1ncc(Cl)cc1C#N [PS-5618, COc1ncc(Cl)cc1C#N]
activity at 50 µM [2]: 97%
Cell viability (fold DMSO) Mean [4]: 1.05 fold DMSO
activity at 50 µM [6, 18]: 108%

Clc1cccn2nnnc12 [PS-5645, Clc1cccn2nnnc12]
activity at 50 µM [2]: 101%
Cell viability (fold DMSO) Mean [4]: 0.92 fold DMSO
activity at 50 µM [6, 18]: 101%

Nc1cnc(Cl)cn1 [PS-5654, Nc1cnc(Cl)cn1]
activity at 50 µM [2]: 117%
Cell viability (fold DMSO) Mean [4]: 1.12 fold DMSO
activity at 50 µM [6, 18]: 97%

Cc1ccc(Br)c(N)c1 [PS-5668, Cc1ccc(Br)c(N)c1]
activity at 50 µM [2]: 101%
Cell viability (fold DMSO) Mean [4]: 1.16 fold DMSO
activity at 50 µM [6, 18]: 102%

O=C(O)c1ccc(N2CCCCC2)nn1 [PS-5724, OC(=O)c1ccc(nn1)N2CCCCC2]
activity at 50 µM [2]: 106%
Cell viability (fold DMSO) Mean [4]: 1.01 fold DMSO
activity at 50 µM [6, 18]: 107%

OCc1cccc(CO)n1 [PS-5751, OCc1cccc(CO)n1]
activity at 50 µM [2]: 113%
Cell viability (fold DMSO) Mean [4]: 0.90 fold DMSO
activity at 50 µM [6, 18]: 100%

Nc1cccnc1Cl [PS-5762, Nc1cccnc1Cl]
activity at 50 µM [2]: 109%
Cell viability (fold DMSO) Mean [4]: 1.10 fold DMSO
activity at 50 µM [6, 18]: 106%

N#Cc1cccc(O)c1 [PS-5804, Oc1cccc(c1)C#N]
activity at 50 µM [2]: 115%
Cell viability (fold DMSO) Mean [4]: 1.16 fold DMSO
activity at 50 µM [6, 18]: 102%

CC1(C)CC(O)CC(C)(C)N1 [PS-5856, CC1(C)CC(O)CC(C)(C)N1]
activity at 50 µM [2]: 110%
Cell viability (fold DMSO) Mean [4]: 1.06 fold DMSO
activity at 50 µM [6, 18]: 97%

OC[C@@H]1Cc2ccccc2CN1 [PS-6029, OC[C@@H]1Cc2ccccc2CN1]
activity at 50 µM [2]: 114%
Cell viability (fold DMSO) Mean [4]: 0.97 fold DMSO
activity at 50 µM [6, 18]: 99%

Nc1cnccc1Cl [PS-6061, Nc1cnccc1Cl]
activity at 50 µM [2]: 102%
Cell viability (fold DMSO) Mean [4]: 1.04 fold DMSO
activity at 50 µM [6, 18]: 102%

Brc1cnc(N2CCCC2)nc1 [PS-6092, Brc1cnc(nc1)N2CCCC2]
activity at 50 µM [2]: 103%
Cell viability (fold DMSO) Mean [4]: 1.11 fold DMSO
activity at 50 µM [6, 18]: 105%

C[C@@H](O)c1cccc(C(F)(F)F)c1 [PS-6325, C[C@@H](O)c1cccc(c1)C(F)(F)F]
activity at 50 µM [2]: 108%
Cell viability (fold DMSO) Mean [4]: 1.07 fold DMSO
activity at 50 µM [6, 18]: 103%

O=C(O)C(O)c1cc(F)cc(F)c1 (stereo not drawn) [PS-6482, OC(C(=O)O)c1cc(F)cc(F)c1]
activity at 50 µM [2]: 110%
Cell viability (fold DMSO) Mean [4]: 1.08 fold DMSO
activity at 50 µM [6, 18]: 101%

CC(=O)Nc1ccc(OC(F)F)cc1 [PS-6506, CC(=O)Nc1ccc(OC(F)F)cc1]
activity at 50 µM [2]: 110%
Cell viability (fold DMSO) Mean [4]: 1.10 fold DMSO
activity at 50 µM [6, 18]: 105%

O=C1CCNc2c(F)cccc21 [PS-6636, Fc1cccc2C(=O)CCNc12]
activity at 50 µM [2]: 86%
Cell viability (fold DMSO) Mean [4]: 1.14 fold DMSO
activity at 50 µM [6, 18]: 87%

Fc1cc(F)cc(-c2ccno2)c1 [PS-6845, Fc1cc(F)cc(c1)c2oncc2]
activity at 50 µM [2]: 111%
Cell viability (fold DMSO) Mean [4]: 1.15 fold DMSO
activity at 50 µM [6, 18]: 100%

COc1cc(F)c(C#N)c(F)c1 [PS-6866, COc1cc(F)c(C#N)c(F)c1]
activity at 50 µM [2]: 115%
Cell viability (fold DMSO) Mean [4]: 1.01 fold DMSO
activity at 50 µM [6, 18]: 97%

OCC1(c2ccc(Cl)cc2)CC1 [RS-1014, OCC1(CC1)c2ccc(Cl)cc2]
activity at 50 µM [2]: 93%
Cell viability (fold DMSO) Mean [4]: 1.07 fold DMSO
activity at 50 µM [6, 18]: 84%

COc1ccccc1N1CCNC(C)C1 (stereo not drawn) [SS-2433, COc1ccccc1N2CCNC(C)C2]
activity at 50 µM [2]: 94%
Cell viability (fold DMSO) Mean [4]: 1.09 fold DMSO
activity at 50 µM [6, 18]: 82%

CCNC(=O)N1CCC(O)CC1 [SS-4002, CCNC(=O)N1CCC(O)CC1]
activity at 50 µM [2]: 98%
Cell viability (fold DMSO) Mean [4]: 1.05 fold DMSO
activity at 50 µM [6, 18]: 103%

CSc1ccccc1N1CCNCC1 [SS-4074, CSc1ccccc1N2CCNCC2]
activity at 50 µM [2]: 100%
Cell viability (fold DMSO) Mean [4]: 0.92 fold DMSO
activity at 50 µM [6, 18]: 79%

COc1ccc2cc[nH]c2n1 [SS-4327, COc1ccc2cc[nH]c2n1]
activity at 50 µM [2]: 108%
Cell viability (fold DMSO) Mean [4]: 1.01 fold DMSO
activity at 50 µM [6, 18]: 98%

O=C(O)[C@@H](O)c1ccc(Br)cc1 [SS-4660, O[C@H](C(=O)O)c1ccc(Br)cc1]
activity at 50 µM [2]: 102%
Cell viability (fold DMSO) Mean [4]: 1.10 fold DMSO
activity at 50 µM [6, 18]: 104%

Nc1cncnc1 [SS-6051, Nc1cncnc1]
activity at 50 µM [2]: 105%
Cell viability (fold DMSO) Mean [4]: 0.96 fold DMSO
activity at 50 µM [6, 18]: 104%

COc1cc2c(cc1O)CN(C)C[C@H]2c1ccc(O)cc1 [cherylline]
EC50 [15]: 20.3 µM
CC50 [16]: > 250 µM
EC50 [17]: 8.8 µM

From PMC9933715 (Antimicrobial Agents and Chemotherapy, 2023)
